Data reported in patent US9440969B2, “Compounds and methods for kinase modulation, and indications therefor” (PLEXXIKON INC., priority 2009, dated 2016).

Experiments:
B-Raf = B-Raf (Homo sapiens, UniProt P15056); experiment: B-Raf kinase activity assay (AlphaScreen, biotin-MEK1 substrate); conditions: 100 μM ATP, 100 nM biotin-MEK1, 45 minutes at room temperature; read-out: Biochemical activity (IC50 μM) B-Raf
In short: (§1)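 Each Raf enzyme (0.1 ng) phosphorylates 100 nM biotin-MEK1 in pH 7.0 HEPES with Mg2+/Mn2+, 100 μM ATP final, 45 min at room temperature. Phospho-MEK1/2 antibody with AlphaScreen beads is read after 3 h. IC50 comes from an 8-point dilution series.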

c-Raf-1 = c-Raf-1 (Homo sapiens, UniProt P04049); experiment: c-Raf-1 kinase activity assay (AlphaScreen, biotin-MEK1 substrate); conditions: 100 μM ATP, 100 nM biotin-MEK1, 45 minutes at room temperature; read-out: Biochemical activity (IC50 μM) c-Raf-1
In short: as §1

[1] = system: A375 melanoma (B-Raf V600E mutation); experiment: A375 cell growth inhibition (ATPlite luminescence); format: cell-based; conditions: Homo sapiens, A-375, 72 h, A375 cells, incubated 3 days with compound
Protocol: (§2) Compounds are assessed in a variety of cell based assays. For example human cell lines with B-Raf V600E mutation (A375 melanoma, SKMEL3 melanoma, and COLO205 colon adenocarcinoma), as well as tumorigenic cell lines with wild-type B-RAF (SW620 colon adenocarcinoma) or with Ras mutations (SKMEL2 melanoma and IPC298 melanoma). Similar assays may be used to assess additional tumorigenic cell lines with Ras mutations, including, but not limited to, M202, M207, M243, M244, M296, S117, HCT116, HCT15, DLD1, MiaPaCa, A549, NCI-H23, NCI-H460, HOP62, MDA-MB231, Hs-578T, HL60, MOLT-4, and CCRF-CEM.
(§3) On day 1, cells are counted, then centrifuged in a conical tube for 5 minutes at 1000 rpm. The supernatant is removed and cells are re-suspended as follows: • SW620 (ATCC catalog #CCL-27): resuspend in Leibovitz's L-15 medium, 2 mM L-glutamine, 10% fetal bovine serum to 6×10^4 cells/mL. • A375 (ATCC catalog #CRL-1619): resuspend in Dulbecco's modified Eagle's medium, 4 mM L-glutamine, 4.5 g/L D-glucose, 10% fetal bovine serum to 6×10^4 cells/mL. • COLO205 (ATCC catalog #CCL-222): resuspend in RPMI 1640, 2 mM L-glutamine, 1.5 g/L sodium bicarbonate, 4.5 g/L D-glucose, 10 mM HEPES, 1.0 mM sodium pyruvate, 10% fetal bovine serum to 6×10^4 cells/mL. • SKMEL2 (ATCC catalog #HTB-68): resuspend in Minimum Eagle essential medium, 2 mM L-glutamine, 1.5 g/L sodium bicarbonate, 0.1 mM non-essential amino acids, 1.0 mM sodium pyruvate, 10% fetal bovine serum to 6×10^4 cells/mL. • SKMEL3 (ATCC catalog #HTB-69): resuspend in McCoy's 5A medium, 1.5 mM L-glutamine, 15% fetal bovine serum to 6×10^4 cells/mL. • IPC298 (DSMZ catalog #ACC 251): resuspend in RPMI 1640, 2 mM L-glutamine, 10% fetal bovine serum to 6×10^4 cells/mL.
(§4) The cells are plated, 50 μL in each well of a 96-well dish (Corning 3610) and incubated at 37° C. in 5% CO2 overnight, cells plated to a final concentration of cells as follows:
(§5) On day 2, compound at a maximum concentration of 5 mM is serially diluted 1:3 (e.g. 10 μL with 30 μL dimethyl sulfoxide) for a total of 8 point titration with DMSO as a control. A 1 μL aliquot of each dilution point and control is added to 249 μL growth media and 50 μL is added to a well containing cells, providing 10 μM compound at the maximum concentration point. The cells are incubated for 3 days at 37° C. in 5% CO2.
(§6) On day 5, ATPlite 1 step Luminescence Assay System (Perkin Elmer #6016739) is brought to room temperature along with the cell cultures. ATPlite is added 25 μL to each well, shake for 2 minutes, and the cells are incubated at room temperature for 10 minutes, then luminescence is read on Safire reader. The measured luminescence correlates directly with cell number, such that the reading as a function of compound concentration is used to determine the IC50 value.
(§7) It is understood that the results of these assays may vary as assay conditions are varied. Inhibition levels determined under the conditions described herein represent a relative activity for the compounds tested under the specific conditions employed. The cell based assays are likely to show variability due to the complexity of the system and the sensitivity thereof to any changes in the assay conditions. […] Results for compounds that are tested and show substantially no inhibition below the highest tested concentration are represented as “-” in the tables below. In some instances, the compounds were not tested in all of the assays, or assay results were not valid, as indicated by NA in the tables below.

[2] = system: COLO205 colon adenocarcinoma (B-Raf V600E mutation); experiment: COLO205 cell growth inhibition (ATPlite luminescence); format: cell-based; conditions: Homo sapiens, COLO 205, 72 h, COLO205 cells, incubated 3 days with compound
Protocol: as §2, §3, §4, §5, §6, §7

B-Raf V600E = B-Raf V600E (Homo sapiens, UniProt P15056, V600E); experiment: B-Raf V600E kinase activity assay (AlphaScreen, biotin-MEK1 substrate); conditions: 100 μM ATP, 100 nM biotin-MEK1, 45 minutes at room temperature, read-out: Biochemical activity (IC50 μM) V600E
In short: as §1

B-Raf V600E, sequence (P15056 whole entry V600E): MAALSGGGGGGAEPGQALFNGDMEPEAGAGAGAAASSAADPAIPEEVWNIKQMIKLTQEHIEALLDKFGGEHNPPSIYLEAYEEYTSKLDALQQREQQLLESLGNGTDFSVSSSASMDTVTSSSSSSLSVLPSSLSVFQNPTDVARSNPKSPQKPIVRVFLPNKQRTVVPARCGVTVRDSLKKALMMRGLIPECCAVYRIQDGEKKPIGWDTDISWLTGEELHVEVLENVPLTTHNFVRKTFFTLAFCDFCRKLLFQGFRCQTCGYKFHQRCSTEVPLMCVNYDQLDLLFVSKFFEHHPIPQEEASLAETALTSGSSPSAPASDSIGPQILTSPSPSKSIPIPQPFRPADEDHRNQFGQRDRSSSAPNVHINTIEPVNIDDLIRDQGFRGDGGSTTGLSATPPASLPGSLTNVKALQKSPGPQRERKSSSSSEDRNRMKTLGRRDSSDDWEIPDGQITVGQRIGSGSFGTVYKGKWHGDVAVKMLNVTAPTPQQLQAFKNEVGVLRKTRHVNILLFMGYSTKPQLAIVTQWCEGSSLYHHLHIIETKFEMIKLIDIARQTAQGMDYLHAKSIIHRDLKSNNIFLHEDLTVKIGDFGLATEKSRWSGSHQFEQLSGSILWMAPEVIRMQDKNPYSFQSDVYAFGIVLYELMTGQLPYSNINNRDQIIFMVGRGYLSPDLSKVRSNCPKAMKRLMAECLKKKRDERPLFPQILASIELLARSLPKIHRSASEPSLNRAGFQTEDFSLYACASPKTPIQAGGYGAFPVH
c-Raf-1, sequence (P04049 whole entry Y340D/Y341D, form open): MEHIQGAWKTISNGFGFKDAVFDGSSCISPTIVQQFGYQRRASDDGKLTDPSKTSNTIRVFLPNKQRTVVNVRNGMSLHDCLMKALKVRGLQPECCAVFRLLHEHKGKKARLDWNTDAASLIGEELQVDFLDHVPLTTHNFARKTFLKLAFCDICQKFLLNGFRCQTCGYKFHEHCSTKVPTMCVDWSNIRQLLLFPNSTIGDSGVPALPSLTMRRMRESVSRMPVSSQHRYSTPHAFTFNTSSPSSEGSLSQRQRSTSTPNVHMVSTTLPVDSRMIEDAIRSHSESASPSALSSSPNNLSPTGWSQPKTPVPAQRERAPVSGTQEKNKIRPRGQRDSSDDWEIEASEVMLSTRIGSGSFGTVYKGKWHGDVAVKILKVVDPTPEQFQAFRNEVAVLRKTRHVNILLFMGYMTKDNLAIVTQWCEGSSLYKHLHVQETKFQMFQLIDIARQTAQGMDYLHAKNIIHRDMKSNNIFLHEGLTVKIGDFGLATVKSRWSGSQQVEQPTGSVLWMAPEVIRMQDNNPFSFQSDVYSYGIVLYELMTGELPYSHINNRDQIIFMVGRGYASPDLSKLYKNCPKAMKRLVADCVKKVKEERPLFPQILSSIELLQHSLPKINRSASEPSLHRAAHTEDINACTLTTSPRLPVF
B-Raf, sequence (P15056 whole entry): as the sequence (P15056 whole entry V600E) above, with E600V counted along it

IC50 (B-Raf): < 0.1 µM
IC50 (c-Raf-1): < 0.1 µM
IC50 [1]: > 1 µM
IC50 [2]: < 1 µM
IC50 (B-Raf V600E): < 0.1 µM
SMILES: CCCS(=O)(=O)Nc1ccc(F)c(C(=O)c2c[nH]c3ncc(-c4cnc(-n5ccccc5=O)cn4)cc23)c1F [P-1600, Propane-1-sulfonic acid (2,4-difluoro-3-{5-[5-(2-oxo-2H-pyridin-1-yl)-pyrazin-2-yl]-1H-pyrrolo[2,3-b]pyridine-3-carbonyl}-phenyl)-amide]
